Results: PubChem BioAssay AID179 (DTP/NCI, 2004)
The source made the active and inactive calls.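 How the source made its calls: active means compounds giving half or more protection of infected cells from virus-caused growth loss, again on retest; inactive means the rest.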 Where a SMILES comes first, the peptide text is derived from it. Bridges are numbered along the chain shown (N, C = ends). The star is where a group is joined. Cbz = O=C(OCc1ccccc1)*; OBn = c1ccc(CO*)cc1

Test system: CEM cells HIV-1 protection, formazan growth assay
Experiment: NCI AIDS Antiviral Assay
Conditions: for IC50: measured here: growth of uninfected CEM cells
Method: The ability of compounds to protect human CEM cells from HIV-1 infection is measured as a screen for new compounds capable of inhibiting the HIV virus. Five concentrations of drug were tested on uninfected and infected cells and cell growth was measured using a soluble formazan assay. […] Compounds that provided at least 50% protection were retested. Compounds that provided at least 50% protection on retest were listed as moderately active. Compounds that reproducibly provided 100% protection were listed as confirmed active. […] Note that the inability to provide protection could be due to toxicity.

Row | SMILES | EC50 | IC50 | outcome
1 | COc1cc(/C=C2/CCS(=O)(=O)c3ccc(C)cc3C2=O)cc(OC)c1OC | > 200 µM | 3.72 µM | –
2 | CC1(C)C(N2CCOCC2)CS1(=O)=O (centres undefined) | > 200 µM | > 200 µM | –
3 | CN(C)CCCN1C(=O)N(CCCN(C)C)c2c3cc(O)ccc3nc3c([N+](=O)[O-])ccc1c23 | > 200 µM | 0.977 µM | –
4 | COc1ccc2c(c1)CCCN1Cc3ccccc3CC21 (centres undefined) | > 200 µM | 141 µM | –
5 | O=C(Cc1nccc2c1[nH]c1ccccc12)OC1C#CCSCC#C/C=C\1 (centres undefined) | > 200 µM | 28.2 µM | –
6 | O=[N+]([O-])c1ccc(/C(Cl)=C/c2ccc(/C=C(\Cl)c3ccc([N+](=O)[O-])cc3[N+](=O)[O-])cc2)c([N+](=O)[O-])c1 | > 1.41 µM | > 1.41 µM | –
7 | COc1ccc(S(=O)(=O)N(C)CC(=O)O)cc1 | – | – | inactive
8 | Cc1cnc([C@H]2CCC3[C@@H]4CC=C5C[C@@H](O)CC[C@]5(C)C4CC[C@@]32C)s1 (some centres undefined) | > 67.6 µM | > 67.6 µM | –
9 | NC(N)=C1CN(C2CCCCC2)C(=O)NC1=O | > 1050 µM | 794 µM | –
10 | O=S(=O)(c1ccc(NCSc2nc3ccccc3s2)cc1)c1ccc(NCSc2nc3ccccc3s2)cc1 | > 12 µM | > 12 µM | –
11 | Cn1cc(NC(=O)Nc2cc(C(=O)Nc3cc(C(=O)Nc4ccc(S(=O)(=O)O)c5cc(S(=O)(=O)O)ccc45)n(C)c3)n(C)c2)cc1C(=O)Nc1cc(C(=O)Nc2ccc(S(=O)(=O)O)c3cc(S(=O)(=O)O)ccc23)n(C)c1 | 12.3 µM | 61.7 µM | –
12 | COc1cc(C(C#N)S(=O)(=O)O)ccc1O (centres undefined) | > 200 µM | > 200 µM | –
13 | NC1=C(c2ccccc2)C(=O)c2ccccc21 | > 61.7 µM | > 61.7 µM | –
14 | O=C1NC(=S)SC1N=Nc1ccc(S(=O)(=O)Nc2ncccn2)cc1 (centres undefined) | > 200 µM | > 200 µM | –
15 | Cc1cccc(-n2c(=S)[nH]c3c(sc(=O)n3-c3ccccc3C)c2=O)c1 | > 2 µM | > 2 µM | –
16 | Cc1cc2oc(C)c(S(=O)(=O)NC(=O)Nc3ccc(Cl)cc3)c(=O)c2c(=O)o1 | > 200 µM | 107 µM | –
17 | CC1(C)C2CCC3(C2)CS(=O)(=O)N2OC231 (centres undefined) | > 219 µM | 120 µM | –
18 | CC1(C)OC(=O)C(=Cc2ccc3c(c2)OCO3)C(=O)O1 | > 129 µM | 110 µM | –
19 | CN(C)CCSc1nccc(-c2cc3ccccc3s2)n1 | > 417 µM | 11.5 µM | –
20 | COC(=O)CNC(=O)Nc1cc(N2C(=O)ON3C2C(C)(C)N(O)C3(C)C)ccc1C (centres undefined) | > 200 µM | 170 µM | –
21 | OCC(O)C(OC1OC(CO)C(O)C(O)C1O)c1nn(-c2ccccc2)c2nc3cc(Cl)ccc3nc12 (centres undefined) | – | – | inactive
22 | Nc1nc(NNc2ccccc2F)cc(=O)[nH]1 | > 200 µM | 28.2 µM | –

Row | SMILES | EC50 | IC50 | outcome
23 | COC(=O)C1C2C1C1C=CC2n2c(=O)n(-c3ccccc3)c(=O)n21 (centres undefined) | > 200 µM | > 200 µM | –
24 | CCCCCC=C(c1cc(Br)c(OC)c(C(=O)OC)c1)c1cc(Br)c(OC)c(C(=O)OC)c1 | 26.9 µM | 87.1 µM | –
25 | O=C(CSc1ncn[nH]1)C[P+](c1ccccc1)(c1ccccc1)c1ccccc1 | – | – | inactive
26 | O=c1[nH]c2[nH]c(-c3ccc(Br)cc3)cc2c2ccccc12 | > 200 µM | > 200 µM | –
27 | COC(=O)C(Cc1ccccc1)NC(=O)CCCNC(=O)OCc1ccccc1 (centres undefined) | > 200 µM | 87.1 µM | –
28 | CCOC(=O)c1cc2c(nc1N)C(=O)CCCC2 | > 200 µM | 148 µM | –
29 | Clc1ccccc1-c1nn2c(CCCCCCCCc3nnc4sc(-c5ccccc5Cl)nn34)nnc2s1 | > 200 µM | 105 µM | –
30 | COc1cc2cccc(N=Cc3c(Br)ccc(OC)c3OC(C)C)c2cc1OC | > 3.16 µM | > 3.16 µM | –
31 | COC(=O)C(C(=O)C(=O)Nc1c(C)cccc1C(C)(C)C)c1nc2ccc(Cl)cc2[nH]c1=O (centres undefined) | > 55 µM | > 55 µM | –
32 | COC(Cc1ccccc1)NC(=O)[C@@]12CCCC[C@@H]1C=Cc1ccccc12 (some centres undefined) | > 55 µM | 22.9 µM | –
33 | BrCCOc1ccc(-c2c3ccccc3c(-c3ccc(OCCBr)cc3)c3ccccc23)cc1 | > 100 µM | > 100 µM | –
34 | COC(=O)c1c(C(=O)OC)c2cc(C(=O)c3ccccc3)ccn2c1Cl | > 26.9 µM | > 26.9 µM | –
35 | COC(=O)/C=C/c1ccc2c(c1)CC1(C2)Cc2cc3c(cc2C1=O)CCC3 (centres undefined) | > 100 µM | > 100 µM | –
36 | COc1cc2c(cc1O)C1COc3cc4c(cc3C1O2)CCC(C)(C)O4 (centres undefined) | > 200 µM | 11.5 µM | –
37 | CSc1nc(=S)[nH]c2n[nH]c(C)c12 | > 200 µM | > 200 µM | –
38 | O=C1c2cc3c(cc2CC1Cc1ccc2c(c1)CCC2)CCC3 (centres undefined) | > 200 µM | 91.2 µM | –
39 | Cc1cn(C2CC(O[Si](C)(C)C(C)(C)C)C(/C=N\O)O2)c(=O)[nH]c1=O (centres undefined) | > 200 µM | > 200 µM | –
40 | CCCc1n[nH]c(=O)n1N1C(=O)C=CC1=O | > 200 µM | > 200 µM | –
41 | O=C1CCC(=O)N2CCCCN12 | > 407 µM | > 407 µM | –
42 | Cc1nc2c(c(N3CCN(C)CC3)n1)Cc1ccccc1-2 | > 200 µM | 41.7 µM | –
43 | CCNc1nnc(-c2nsc3ccccc23)s1 | > 20 µM | > 20 µM | –
44 | COC(=O)N[C@@H]1C[C@H]2CC[C@]1(O[Si](C(C)C)(C(C)C)C(C)C)C(=O)C2 | > 200 µM | 16.6 µM | –

Row | SMILES | EC50 | IC50 | outcome
45 | CN(C)CCSc1cccc(-c2cc(-c3cccs3)nc(SCCN(C)C)n2)c1 | > 282 µM | 2.24 µM | –
46 | Cc1ccc2c(c1)sc1nncn12 | > 100 µM | > 100 µM | –
47 | Brc1ccc(C2SCc3nc4ccccc4n32)cc1 (centres undefined) | – | – | inactive
48 | c1ccc2c(c1)n1c(N3CCOCC3)[n+]3ccccc3c1c1c3cccc[n+]3c(N3CCOCC3)n21 | 123 µM | 145 µM | –
49 | Nc1nc(N)c(CCCCc2ccc([N+](=O)[O-])cc2)c(N)n1 | – | – | inactive
50 | N#C/C(N)=C(\C#N)N=CNc1ccc(N)cc1 | > 200 µM | > 100 µM | –
51 | C1=CC2C(c3cn(-c4ccccc4)nc31)C1C2C2C=CC3C(C=C2)C31 (centres undefined) | > 3.24 µM | > 3.24 µM | –
52 | CC(=O)OC1CCC2OOC1O2 (centres undefined) | – | – | inactive
53 | COc1cccc2c1OCC1Cc3ccccc3OC21 (centres undefined) | – | – | inactive
54 | O=C(O)/C=C\C(=O)Nn1c(Cc2ccc(Cl)cc2)n[nH]c1=O | > 200 µM | > 200 µM | –
55 | CN1CCC(O)(OC(=O)C(c2ccccc2)C2(O)CCCC2)CC1 (centres undefined) | > 200 µM | > 200 µM | –
56 | CN(C)C1=CC(=O)C(=O)c2cnc(N(C)C)cc21 | – | – | inactive
57 | O=C(O/N=C1/CCC/C1=C\c1ccccc1)c1ccc(Cl)c(Cl)c1 | – | – | inactive
58 | CC(C)CCCC(C)C1CCC2C3CCC(=O)C(C)(CCCNCCO)C3CCC12C (centres undefined) | > 20 µM | 2.88 µM | –
59 | O=C1Nc2cnc(Cl)nc2Nc2ccc(Cl)cc21 | 123 µM | > 200 µM | –
60 | CSc1s[s+]c(SC)c1-c1ccccc1 | 14.8 µM | 16.2 µM | –
61 | O=c1n(-c2ccccc2)c(=O)n2n1C1CCC2CC1 | > 200 µM | > 200 µM | –
62 | CC(=O)n1cc(CC(C)O)c(=O)[nH]c1=O (centres undefined) | > 1170 µM | > 1170 µM | –
63 | Cc1ccc2c(c1)Nc1ccccc1P2(=O)O | > 200 µM | > 200 µM | –
64 | COC(=O)C1CCC(=O)NCCCCC(NC(=O)C(CC(=O)OCc2ccccc2)NC(=O)OCc2ccccc2)C(=O)N1 (stereo not drawn) (Cbz-Asp(OBn)-Lys-Glu-OMe; lactam 2-3; configuration not given here) | > 200 µM | > 200 µM | –
65 | CC(C)(C)C(=O)OCOP(=O)(OCOC(=O)C(C)(C)C)OCC1CCC(n2ccc(=O)[nH]c2=O)O1 (centres undefined) | 3.39 µM | 72.4 µM | –
66 | CC(C)P(=S)(OCc1ccccc1)C(C)C | > 200 µM | 126 µM | –

Row | SMILES | EC50 | IC50 | outcome
67 | C#C[C@H]1CCCCCC1O (some centres undefined) | > 1820 µM | 1230 µM | –
68 | CC(=O)c1ccc2c(c1)CC1(C2)Cc2cc3c(cc2C1=O)CCC3 (centres undefined) | > 200 µM | 14.5 µM | –
69 | O=C(O)[C@@H]1CCCC[C@@H]1C(=O)N(C1CCCCC1)C1CCCCC1 | > 77.6 µM | > 77.6 µM | –
70 | O=C(O)c1cc([N+](=O)[O-])cc([N+](=O)[O-])c1/C=C/n1c(=S)[nH]c2ccc([N+](=O)[O-])cc21 | > 100 µM | 91.2 µM | –
71 | O=C(NCCNCCNCCNC(=O)c1cc(-c2ccccc2)nc2ccccc12)c1cc(-c2ccccc2)nc2ccccc12 | > 20 µM | 3.31 µM | –
72 | COc1ccc(C2Oc3c(cccc3OC)C=C2[N+](=O)[O-])cc1 (centres undefined) | > 200 µM | 1.51 µM | –
73 | CCCCCCCCCCCC(=O)OCC(O)CO (centres undefined) | > 100 µM | 51.3 µM | –
74 | CCC1=CCC23C(=O)C=CC(=O)C2(C1)C(=O)c1cccc(OC)c1C3=O (centres undefined) | > 20 µM | 1.05 µM | –
75 | O=C(O)c1c(-c2ccccc2)nn2c1ccc1ccccc12 | > 200 µM | > 100 µM | –
76 | Nn1c(CCCCCCCCc2nnc(-c3c(O)ccc4ccccc34)n2N)nnc1-c1c(O)ccc2ccccc12 | > 200 µM | > 200 µM | –
77 | COc1ccc(/C=C2/CCS(=O)(=O)c3ccc(C)cc3C2=O)cc1OC | > 200 µM | 6.03 µM | –
78 | CCOC(=O)c1nc2ccc(Cl)cc2c2c1Cc1ccccc1-2 | > 20 µM | > 20 µM | –
79 | C[C@@]1(CO[N+](=O)[O-])OC(=O)N2CCC[C@H]21 | > 1150 µM | > 1150 µM | –
80 | O=C1/C(=C/c2ccc(O)cc2)CC/C1=C\c1ccc(O)cc1 | > 200 µM | 31.6 µM | –
81 | CC1OC(Oc2c(-c3cc(O)c(O)c(O)c3)oc3cc(O)cc(O)c3c2=O)C(O)C(O)C1O (centres undefined) | – | – | inactive
82 | CC1(C)O[C@H]2OC(CO[Si](C)(C)C(C)(C)C)C(N=[N+]=[N-])[C@H]2O1 (some centres undefined) | > 20 µM | > 20 µM | –
83 | O=C(C[N+]12CC=C(CO)C1C(O)CC2)c1ccc(Br)cc1 (centres undefined) | > 575 µM | > 575 µM | –
84 | ON=C1/C(=N\O)CCC/C1=N/O | > 1050 µM | 19.1 µM | –
85 | CCOC(=O)C(C(=O)OCC)C(NC(=O)Nc1cc(C(F)(F)F)ccc1OC)(C(F)(F)F)C(F)(F)F | – | – | inactive
